US12528814B2, “Bifunctional degraders of interleukin-1 receptor-associated kinases and therapeutic use thereof” (NURIX THERAPEUTICS, INC., priority 2020, dated 2026)
Like-named read-outs stand apart in the source and are kept apart here.

Tests used:
[1] = biological target: T1, IRAK4 (Homo sapiens (Human), UniProt Q9NWZ3); experiment: IRAK4 Biochemical HTRF Kinase Assay; conditions: read-out: IRAK4 HTRF biochemical: IC50
Protocol: IRAK4 Biochemical HTRF Kinase Assay
The binding capacities of certain bifunctional compounds of Formula (I) were determined using the CisBio HTRF KinEASE STK S1 Kit (#62ST1PEB, contains 5× Kinase buffer, 1× Detection Buffer, anti-phospho-serine/threonine-cryptate, Streptavidin-XL665, and STK-S1), which measures the phosphorylation of a biotinylated peptide substrate by IRAK4, according to the manufacturer's protocol. […] 2 μl of a reaction solution containing 5 μM STK-S1, 10 mM ATP, and 10 mM MgCl2 were added to each well to a final volume of 10 μl. Assay controls include wells containing kinase with no compound (DMSO only) and wells containing no kinase and no compound (DMSO only). The reactions were allowed to proceed at ambient temperature for 90 minutes. […] The plates were incubated for 60 minutes at ambient temperature and then read on an Envision Multilabel Reader (PerkinElmer). […] For IC50 determination, the compounds were tested at sixteen concentrations in duplicate and curve-fitting was performed by non-linear regression analysis using GraphPad Priam.
Target sequence in this assay (Q9NWZ3 whole entry, species assumed): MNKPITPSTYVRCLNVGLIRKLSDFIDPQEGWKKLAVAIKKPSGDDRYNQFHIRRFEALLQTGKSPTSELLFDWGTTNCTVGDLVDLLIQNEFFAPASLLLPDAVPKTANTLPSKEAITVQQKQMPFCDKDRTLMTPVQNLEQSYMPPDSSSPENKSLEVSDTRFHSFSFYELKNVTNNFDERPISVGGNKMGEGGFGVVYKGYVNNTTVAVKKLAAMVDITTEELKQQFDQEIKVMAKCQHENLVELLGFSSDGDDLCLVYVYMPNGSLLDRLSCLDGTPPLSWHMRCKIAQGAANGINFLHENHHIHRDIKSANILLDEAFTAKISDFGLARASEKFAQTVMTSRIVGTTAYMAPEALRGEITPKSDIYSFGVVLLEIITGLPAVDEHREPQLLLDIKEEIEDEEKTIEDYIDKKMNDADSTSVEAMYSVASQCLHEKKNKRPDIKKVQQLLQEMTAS

[2] = biological target: T1, IRAK4; experiment: IRAK4 Degradation HiBiT Assay; conditions: HiBiT-tagged Jurkat cells, 4 hrs; for Dmax: Jurkat; for DC50: read-out: Cellular IRAK4 HiBiT: DC50
Target sequence in this assay (Q9NWZ3 whole entry): as the sequence (Q9NWZ3 whole entry, species assumed) above

[3] = read-out: Cellular IRAK4 HiBiT: Dmax, Table 5, multiple runs
[4] = read-out: Cellular IRAK4 HiBiT: Dmax, Table 4

Row | SMILES | IC50 ([1]; Table 5, multiple runs) [nM] | Dmax [2, 3] [%] | DC50 ([2]; Table 5, multiple runs) [nM] | IC50 ([1]; Table 4) [nM] | Dmax [2, 4] [%] | DC50 ([2]; Table 4) [nM]
1 | N#Cc1cnn2c(-c3cc(NC4CCOCC4)c(-c4nnc(C56CCC(NC(=O)CCOCCOCCNc7cccc8c7C(=O)N(C7CCC(=O)NC7=O)C8=O)(CC5)CC6)s4)cn3)ccc2c1 (centres unmarked) [Example 1, N-(4-(5-(6-(3-cyanopyrrolo[1,2-b]pyridazin-7-yl)-4-((tetrahydro-2H-pyran-4-yl)amino)pyridin-3-yl)-1,3,4-thiadiazol-2-yl)bicyclo[2.2.2]octan-1-yl)-3-(2-(2-((2-(2,6-dioxopiperidin-3-yl)-1,3-dioxoisoindolin-4-yl)amino)ethoxy)ethoxy)propanamide] | 2 | 60 | 22.9 | 1.8 | 65 | 23.8
2 | N#Cc1cnn2c(-c3cc(NC4CCOCC4)c(-c4nnc(C56CCC(NC(=O)CCOCCOCCOCCNc7cccc8c7C(=O)N(C7CCC(=O)NC7=O)C8=O)(CC5)CC6)s4)cn3)ccc2c1 (centres unmarked) [Example 2, N-(4-(5-(6-(3-cyanopyrrolo[1,2-b]pyridazin-7-yl)-4-((tetrahydro-2H-pyran-4-yl)amino)pyridin-3-yl)-1,3,4-thiadiazol-2-yl)bicyclo[2.2.2]octan-1-yl)-3-(2-(2-(2-((2-(2,6-dioxopiperidin-3-yl)-1,3-dioxoisoindolin-4-yl)amino)ethoxy)ethoxy)ethoxy)propanamide] | 1.8 | 75 | 27.2 | 1.6 | 71 | 27.8
3 | CC(C)Nc1cc(-c2ccc3cc(C#N)cnn23)ncc1-c1nnc([C@H]2CC[C@H](NC(=O)CCOCCOCCNc3cccc4c3C(=O)N(C3CCC(=O)NC3=O)C4=O)CC2)s1 (some centres unmarked) [Example 3, N-((1r,4r)-4-(5-(6-(3-cyanopyrrolo[1,2-b]pyridazin-7-yl)-4-(isopropylamino)pyridin-3-yl)-1,3,4-thiadiazol-2-yl)cyclohexyl)-3-(2-(2-((2-(2,6-dioxopiperidin-3-yl)-1,3-dioxoisoindolin-4-yl)amino)ethoxy)ethoxy)propanamide] | 1.9 | 90 | 30.1 | 2.3 | 91 | 32
4 | CC(C)Nc1cc(-c2ccc3cc(C#N)cnn23)ncc1-c1nnc([C@H]2CC[C@H](NC(=O)CCOCCOCCOCCNc3cccc4c3C(=O)N(C3CCC(=O)NC3=O)C4=O)CC2)s1 (some centres unmarked) [Example 4, N-((1r,4r)-4-(5-(6-(3-cyanopyrrolo[1,2-b]pyridazin-7-yl)-4-(isopropylamino)pyridin-3-yl)-1,3,4-thiadiazol-2-yl)cyclohexyl)-3-(2-(2-(2-((2-(2,6-dioxopiperidin-3-yl)-1,3-dioxoisoindolin-4-yl)amino)ethoxy)ethoxy)ethoxy)propanamide] | 1.7 | 98 | 52.5 | 1.8 | 97 | 51.8
5 | CC(C)Nc1cc(-c2ccc3cc(C#N)cnn23)ncc1-c1nnc(N2CCN(C(=O)CCCCCCCNc3ccc4c(c3)C(=O)N(C3CCC(=O)NC3=O)C4=O)CC2)s1 (centres unmarked) [Example 5, 7-(5-(5-(4-(8-((2-(2,6-dioxopiperidin-3-yl)-1,3-dioxoisoindolin-5-yl)amino)octanoyl)piperazin-1-yl)-1,3,4-thiadiazol-2-yl)-4-(isopropylamino)pyridin-2-yl)pyrrolo[1,2-b]pyridazine-3-carbonitrile] | 3.9 | 57 | 71.2 | 3.8 | 57 | 84
6 | CC(C)Nc1cc(-c2ccc3cc(C#N)cnn23)ncc1-c1nnc(N2CCN(C(=O)CCCCCNc3ccc4c(c3)C(=O)N(C3CCC(=O)NC3=O)C4=O)CC2)s1 (centres unmarked) [Example 6, 7-(5-(5-(4-(6-((2-(2,6-dioxopiperidin-3-yl)-1,3-dioxoisoindolin-5-yl)amino)hexanoyl)piperazin-1-yl)-1,3,4-thiadiazol-2-yl)-4-(isopropylamino)pyridin-2-yl)pyrrolo[1,2-b]pyridazine-3-carbonitrile] | 2.6 | 69 | 70 | 2.6 | 82 | 74.6
7 | CC(C)Nc1cc(-c2ccc3cc(C#N)cnn23)ncc1-c1nnc(N2CCN(C(=O)CCOCCNc3cccc4c3C(=O)N(C3CCC(=O)NC3=O)C4=O)CC2)s1 (centres unmarked) [Example 7, 7-(5-(5-(4-(3-(2-((2-(2,6-dioxopiperidin-3-yl)-1,3-dioxoisoindolin-4-yl)amino)ethoxy)propanoyl)piperazin-1-yl)-1,3,4-thiadiazol-2-yl)-4-(isopropylamino)pyridin-2-yl)pyrrolo[1,2-b]pyridazine-3-carbonitrile] | 9.2 | 39 | 229 | 9.2 | 39 | 228
8 | CC(C)Nc1cc(-c2ccc3cc(C#N)cnn23)ncc1-c1nnc(N2CCN(C(=O)CCCCCCCNc3cccc4c3C(=O)N(C3CCC(=O)NC3=O)C4=O)CC2)s1 (centres unmarked) [Example 8, 7-(5-(5-(4-(8-((2-(2,6-dioxopiperidin-3-yl)-1,3-dioxoisoindolin-4-yl)amino)octanoyl)piperazin-1-yl)-1,3,4-thiadiazol-2-yl)-4-(isopropylamino)pyridin-2-yl)pyrrolo[1,2-b]pyridazine-3-carbonitrile] | 0.8 | 100 | 53.8 | 0.8 | 100 | 53.8
9 | CNc1cc(-c2ccc3cc(C#N)cnn23)ncc1-c1nnc(C23CCC(NC(=O)C4CCN(c5cccc6c5C(=O)N(C5CCC(=O)NC5=O)C6=O)CC4)(CC2)CC3)s1 (centres unmarked) [Example 136, N-(4-(5-(6-(3-cyanopyrrolo[1,2-b]pyridazin-7-yl)-4-(methylamino)pyridin-3-yl)-1,3,4-thiadiazol-2-yl)bicyclo[2.2.2]octan-1-yl)-1-(2-(2,6-dioxopiperidin-3-yl)-1,3-dioxoisoindolin-4-yl)piperidine-4-carboxamide] | – | 35 | 21.9 | – | – | –

The next lines start with the values.

Row | IC50 ([1]; Table 5, multiple runs) [nM] | Dmax [2, 3] [%] | DC50 ([2]; Table 5, multiple runs) [nM] | IC50 ([1]; Table 4) [nM] | Dmax [2, 4] [%] | DC50 ([2]; Table 4) [nM] | SMILES
10 | 1.9 | 115 | 258 | – | – | – | CNc1cc(-c2ccc3cc(C#N)cnn23)ncc1-c1nnc(C23CCC(NC(=O)[C@H]4C[C@H]4C(=O)N[C@H](C(=O)N4C[C@H](O)C[C@H]4C(=O)N[C@@H](C)c4ccc(-c5scnc5C)cc4)C(C)(C)C)(CC2)CC3)s1 (mixture of isomers) [Example 142, (1RS,2SR)—N1-(4-(5-(6-(3-cyanopyrrolo[1,2-b]pyridazin-7-yl)-4-(methylamino)pyridin-3-yl)-1,3,4-thiadiazol-2-yl)bicyclo[2.2.2]octan-1-yl)-N2—((S)-1-((2S,4R)-4-hydroxy-2-(((S)-1-(4-(4-methylthiazol-5-yl)phenyl)ethyl)carbamoyl)pyrrolidin-1-yl)-3,3-dimethyl-1-oxobutan-2-yl)cyclopropane-1,2-dicarboxamide]
11 | 1.5 | 89 | 429 | – | – | – | CNc1cc(-c2ccc3cc(C#N)cnn23)ncc1-c1nnc(C23CCC(NC(=O)[C@H]4CC[C@H]4C(=O)N[C@H](C(=O)N4C[C@H](O)C[C@H]4C(=O)N[C@@H](C)c4ccc(-c5scnc5C)cc4)C(C)(C)C)(CC2)CC3)s1 (mixture of isomers) [Example 144, (1RS,2SR)—N1-(4-(5-(6-(3-cyanopyrrolo[1,2-b]pyridazin-7-yl)-4-(methylamino)pyridin-3-yl)-1,3,4-thiadiazol-2-yl)bicyclo[2.2.2]octan-1-yl)-N2—((S)-1-((2S,4R)-4-hydroxy-2-(((S)-1-(4-(4-methylthiazol-5-yl)phenyl)ethyl)carbamoyl)pyrrolidin-1-yl)-3,3-dimethyl-1-oxobutan-2-yl)cyclobutane-1,2-dicarboxamide]
12 | 1.6 | 37 | 870 | – | – | – | CNc1cc(-c2ccc3cc(C#N)cnn23)ncc1-c1nnc([C@H]2CC[C@H](NC(=O)[C@H]3CC[C@H]3C(=O)N[C@H](C(=O)N3C[C@H](O)C[C@H]3C(=O)N[C@@H](C)c3ccc(-c4scnc4C)cc3)C(C)(C)C)CC2)s1 (racemic) [Example 143, (1RS,2SR)—N1-((1r,4R)-4-(5-(6-(3-cyanopyrrolo[1,2-b]pyridazin-7-yl)-4-(methylamino)pyridin-3-yl)-1,3,4-thiadiazol-2-yl)cyclohexyl)-N2—((S)-1-((2S,4R)-4-hydroxy-2-(((S)-1-(4-(4-methylthiazol-5-yl)phenyl)ethyl)carbamoyl)pyrrolidin-1-yl)-3,3-dimethyl-1-oxobutan-2-yl)cyclobutane-1,2-dicarboxamide]
13 | 1.5 | 80 | 508 | – | – | – | CNc1cc(-c2ccc3cc(C#N)cnn23)ncc1-c1nnc(C2CCC(NC(=O)[C@H]3C[C@H]3C(=O)N[C@H](C(=O)N3C[C@H](O)C[C@H]3C(=O)N[C@@H](C)c3ccc(-c4scnc4C)cc3)C(C)(C)C)CC2)s1 (mixture of isomers) [Example 147, (1RS,2SR)—N1-((1r,4R)-4-(5-(6-(3-cyanopyrrolo[1,2-b]pyridazin-7-yl)-4-(methylamino)pyridin-3-yl)-1,3,4-thiadiazol-2-yl)cyclohexyl)-N2—((S)-1-((2S,4R)-4-hydroxy-2-(((S)-1-(4-(4-methylthiazol-5-yl)phenyl)ethyl)carbamoyl)pyrrolidin-1-yl)-3,3-dimethyl-1-oxobutan-2-yl)cyclopropane-1,2-dicarboxamide]
